Laboratory results as given in US7109176B2, “Nonsteroidal anti-inflammatory substances, compositions and methods for their use” (Pliva-Istrazivacki Institut D.o.o., priority 2002, dated 2006).

Experiments:
[1] = tested on: TNF-α; experiment: Determination of TNF-α secretion in LPS-stimulated mononuclear cells of human peripheral blood in vitro (ELISA); assay type: cell-based; conditions: human PBMC, LPS 1 μg/mL, 18 to 24 hours, TNF-α in supernatant by ELISA
Method: Determination of TNF-α and IL-1β Secretion in Mononuclear Cells of Human Peripheral Blood In Vitro
Peripheral blood mononuclear cells (PMBC) were prepared from heparinized whole blood after separation of PMBC on Ficoll-Hypaque (Amersham-Pharmacia). For the determination of TNF-α level, 3.5-5×10^4 cells were cultured in a total volume of 200 μl within a period of 18 to 24 hours on microtiter flat bottom plates (96 wells, Falcon) in RPMI 1640 medium supplemented with 10% of heat-inactivated human AB serum (Croatian Centre For Transfusion Medicine, Zagreb), 100 units/mL of penicillin, […] and 20 mM HEPES (Invitrogen Life Technologies). The cells were incubated at 37° C. in an atmosphere with 5% CO2 and 90% moisture. The cells in a negative control were cultured only in the medium (NC), while the secretion of TNF-α in a positive control was stimulated by the addition of 1 μg/mL lipopolysaccharide (LPS, E. coli serotype 0111:B4, SIGMA) (PC) and the effect of the tested substances on TNF-α secretion was tested after their addition to cell cultures stimulated with LPS (TS). […] The test sensitivity was <3 pg/mL TNF-α. The determination of IL-1β level was performed as described for TNF-α determination, only that 1×10^5 cells/well and 0.1 ng/mL of LPS were used. IL-1β level was determined by ELISA (R&D Systems). […] IC-50 was calculated using Graph Pad Prism Software. Determination of TNF-α Secretion by RAW 264.7 Cells

[2] = target: T1, Human Prostaglandin-H Synthase—1 (hPGH-1) (Homo sapiens, UniProt P23219); experiment: Human prostaglandin-H synthase-1 (hPGH-1) inhibition assay in transfected COS-7 cells (PGE-2 readout); assay type: cell-based; conditions: COS-7 cells transfected with hPGH-1, arachidonic acid 20 μM, PGE-2 measured
T1 construct: expressed in transfected cells; host or cells: COS-7 cells (ATCC), transient transfection with Lipofectamine 2000
T1 sequence (P23219 24-599): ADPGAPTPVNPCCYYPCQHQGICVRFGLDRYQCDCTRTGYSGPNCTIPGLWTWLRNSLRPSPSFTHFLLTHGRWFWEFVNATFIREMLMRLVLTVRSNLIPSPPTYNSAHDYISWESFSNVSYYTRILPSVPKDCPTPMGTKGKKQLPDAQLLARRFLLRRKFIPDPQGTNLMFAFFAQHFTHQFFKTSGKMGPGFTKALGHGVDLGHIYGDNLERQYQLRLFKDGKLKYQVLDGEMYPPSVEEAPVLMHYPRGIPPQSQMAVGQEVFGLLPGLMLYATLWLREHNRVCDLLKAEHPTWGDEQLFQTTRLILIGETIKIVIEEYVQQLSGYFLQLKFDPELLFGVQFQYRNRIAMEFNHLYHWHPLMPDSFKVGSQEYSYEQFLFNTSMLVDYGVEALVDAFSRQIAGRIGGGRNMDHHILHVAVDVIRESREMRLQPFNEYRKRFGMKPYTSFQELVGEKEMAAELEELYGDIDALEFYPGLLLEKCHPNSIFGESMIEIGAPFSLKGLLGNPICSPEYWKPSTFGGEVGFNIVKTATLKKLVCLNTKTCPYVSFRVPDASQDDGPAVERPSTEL
Method: (§1) The cells were grown in 10% fetal bovine serum (FBS) in DMEM medium (Invitrogen Life Technologies) at 37° C. in an atmosphere with 5% CO2 and 90% moisture. 20 000 cells/well were plated in 96 well plate (Falcon). The cells in a negative control were cultured only in the medium (NC), while the secretion of TNF-α in a positive control was stimulated by the addition of 500 pg/mL lipopolysaccharide (LPS, E. coli serotype 0111:B4, SIGMA) (PC) and the effect of the tested substances on TNF-α secretion was tested after their addition to cell cultures stimulated with LPS (TS). […] Human Prostaglandin-H Synthase—1 (hPGH-1) and Human Prostaglandin-H Synthase—2 (hPGH-2) Inhibition Assay
(§2) Genes coding hPGH-1 and hPGH-2 were amplified with PCR using Platinum pfx DNA polymerase (Invitrogen Life Technologies) from human placenta cDNA library (Stratagene). Primer sequences used for hPGH-1 are: • 5′ […] 3′ (SEQ ID NO: 1) and • 5′ […] 3′ (SEQ ID NO: 2); for hPGH-2 • 5′ […] 3′ (SEQ ID NO: 3) and • 5′ […] 3′ (SEQ ID NO: 4). PCR products were cloned into HindIII and BamHI restriction sites of pcDNA3.1 (Hygro(+) plasmid (Invitrogen Life Technologies), sequences were confirmed by sequencing.
(§3) Transfection was performed on COS-7 cells (ATCC), cells were grown in 10% foetal bovine serum (FBS) in DMEM medium (Invitrogen Life Tecnologies), 37° C. in an atmosphere with 5% CO2 and 90% moisture, to full confluency in 24 well plate (Falcon). 1 μg plasmid DNA (pcDNA Hygro 3.1 (+) containing PGH-1 or PGH-2 gene, or pcDNA Hygro 3.1 (+) for negative control samples) was combined with 1,5 μl Lipofectamine 2000 (Invitrogen Life Technologies), following manufacturer's recommendations. […] After 30 minutes supernatants were removed and PGE-2 was measured with PGE-2 assay kit (Cayman) following manufacturer's instructions.
(§4) % inhibition was calculated by the following equation: % inhibition=(1−sample PGE-2 concentration/positive control PGE-2 concentration)*100 In Vivo Model of LPS-Induced Exccessive Secretion of TNF-α in Mice

[3] = target: T2, Human Prostaglandin-H Synthase—2 (hPGH-2) (Homo sapiens, UniProt P35354); experiment: Human prostaglandin-H synthase-2 (hPGH-2) inhibition assay in transfected COS-7 cells (PGE-2 readout); assay type: cell-based; conditions: COS-7 cells transfected with hPGH-2, arachidonic acid 20 μM, PGE-2 measured
T2 construct: expressed in transfected cells; host or cells: COS-7 cells (ATCC), transient transfection with Lipofectamine 2000
T2 sequence (P35354 18-604): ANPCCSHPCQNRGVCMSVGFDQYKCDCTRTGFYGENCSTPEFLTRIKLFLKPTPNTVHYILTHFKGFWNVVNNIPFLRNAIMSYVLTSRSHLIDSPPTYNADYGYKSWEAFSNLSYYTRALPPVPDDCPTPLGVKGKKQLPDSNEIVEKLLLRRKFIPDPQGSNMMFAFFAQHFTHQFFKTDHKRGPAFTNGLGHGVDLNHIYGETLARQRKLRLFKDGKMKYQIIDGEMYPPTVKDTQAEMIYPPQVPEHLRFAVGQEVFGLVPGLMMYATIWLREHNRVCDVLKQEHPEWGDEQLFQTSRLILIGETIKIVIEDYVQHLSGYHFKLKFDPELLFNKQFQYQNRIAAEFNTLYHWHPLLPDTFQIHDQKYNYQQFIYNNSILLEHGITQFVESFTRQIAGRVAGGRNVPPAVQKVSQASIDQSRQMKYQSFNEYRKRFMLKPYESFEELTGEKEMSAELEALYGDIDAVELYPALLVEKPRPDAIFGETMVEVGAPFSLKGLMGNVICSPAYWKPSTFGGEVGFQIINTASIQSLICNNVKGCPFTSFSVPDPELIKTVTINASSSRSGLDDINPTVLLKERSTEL
Method: as §1, §2, §3, §4

[4] = tested on: TNF-α; experiment: In vivo model of LPS-induced excessive secretion of TNF-α in mice; conditions: male BALB/c mice, substance p.o. 30 minutes prior to i.p. LPS 25 μg/animal, plasma TNF-α two hours later; dose not given
Method: as §4
TNF-α secretion in mice was induced according to the previously described method (Badger A. M. Et al., J. of Pharmac. and Env. Therap. 279 1996 1453-1461). In the test, male BALB/c mice at an age of 8 to 12 weeks in groups of 6 to 10 animals were used. Animals were treated p.o. either only with the solvent (in a negative and a positive control) or with solutions of the substance 30 minutes prior to the i.p. treatment with LPS (E. coli serotype 0111:B4, Sigma) in a dose of 25 μg/animal. Two hours later the animals were euthanized by means of i.p. injection of Roumpun (Bayer) and Ketanest (Park-Davis). […] The TNF-α level in the plasma was determined by ELISA (Biosource, R&D Systems) according to the process prescribed by the manufacturer. The test sensitivity was <3 pg/mL TNF-α. The percentage inhibition of TNF-α production was calculated by the following equation: % inhibition=[1−(TS—NC)/(PC—NC)]*100

Row | SMILES | IC50 [1] [µM] | IC50 [2] [µM] | IC50 [3] [µM] | LPS induced excessive secretion of TNF-α % of inhibition [4] [%]
1 | CC[C@H]1OC(=O)[C@H](C)[C@@H](O[C@H]2C[C@@](C)(OC)[C@@H](O)[C@H](C)O2)[C@H](C)[C@@H](O[C@@H]2O[C@H](C)C[C@H](N(C)C)[C@H]2O)[C@](C)(O)C[C@@H](C)CN(CCCNC(=O)Cc2c(C)n(C(=O)c3ccc(Cl)cc3)c3ccc(OC)cc23)[C@H](C)[C@@H](O)[C@]1(C)O [Ex. 4] | 1 | > 30 | 1 | 70
2 | CC[C@H]1OC(=O)[C@H](C)[C@@H](O[C@H]2C[C@@](C)(OC)[C@@H](O)[C@H](C)O2)[C@H](C)[C@@H](O[C@@H]2O[C@H](C)C[C@H](N(C)C)[C@H]2O)[C@](C)(O)C[C@@H](C)CN(CCCNC(=O)[C@@H](C)c2ccc(CC(C)C)cc2)[C@H](C)[C@@H](O)[C@]1(C)O [Ex. 5] | 1 | 10 | 10 | 66
3 | CC[C@H]1OC(=O)[C@H](C)[C@@H](O)[C@H](C)[C@@H](O[C@@H]2O[C@H](C)C[C@H](N(C)C)[C@H]2O)[C@](C)(O)C[C@@H](C)CN(CCCNC(=O)Cc2c(C)n(C(=O)c3ccc(Cl)cc3)c3ccc(OC)cc23)[C@H](C)[C@@H](O)[C@]1(C)O [Ex. 10] | 10 | > 30 | > 30 | 47
4 | CC(C)Cc1ccc([C@@H](C)C(=O)O)cc1 [S-(+)-Ibuprofen, S-(+)-ibuprofen, reference compound] | > 30 |  |  | 
